From article doi:10.1101/2024.12.09.627564, “Cannabinoid inhibition of mechanosensitive K^+ channels” (bioRxiv, 2024)

Biological target: T1, hsTRAAK (Homo sapiens, UniProt Q9NYG8)
T1 construct: expressed in transfected cells; host or cells: HEK293T
T1 sequence (Q9NYG8 1-393): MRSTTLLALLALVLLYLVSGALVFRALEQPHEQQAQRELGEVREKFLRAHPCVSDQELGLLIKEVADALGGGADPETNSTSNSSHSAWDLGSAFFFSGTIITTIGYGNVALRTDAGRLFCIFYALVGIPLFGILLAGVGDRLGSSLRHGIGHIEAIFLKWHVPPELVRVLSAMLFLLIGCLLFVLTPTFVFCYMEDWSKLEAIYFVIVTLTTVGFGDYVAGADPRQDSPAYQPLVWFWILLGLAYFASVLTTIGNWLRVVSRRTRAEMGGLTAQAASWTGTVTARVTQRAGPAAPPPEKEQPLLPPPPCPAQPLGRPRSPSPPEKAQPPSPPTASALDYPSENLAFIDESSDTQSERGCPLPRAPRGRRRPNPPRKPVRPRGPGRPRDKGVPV
Assay: Whole-cell recordings of TRAAK in cultured HEK293T cells, extracellular CBD
Assay type: cell-based
Conditions: 1 and 10 μM CBD, 0 mV
Experimental: For patch clamp recording from cultured cells, drTREK-1 or hsTRAAK genes were cloned into a modified pCEH vector to generate C-terminally EGFP-tagged constructs. HEK293T were cultured in DMEM (Gibco, Thermo Fisher Scientific) with 10% FBS and 100 U ml−1 penicillin and 100 μg ml−1 streptomycin. Trypsinized cells were deposited on 12-mm glass coverslips in a six-well dish one to two days before transfection. For transfection, drTREK-1 or hsTRAAK plasmids were mixed with FuGENE 6 in OptiMEM at a 1:3 ratio with 1 μg DNA per well per construct and applied to cells in growth medium with antibiotics. Patching was conducted from 24 to 60 h post-transfection. Coverslips were placed in a perfusion chamber at room temperature in isotonic bath solution: 135 mM NaCl, 15 mM KCl, 1 mM CaCl2, 1 mM MgCl2, 10 mM HEPES, adjusted to a final pH of 7.5 with NaOH. Cells were chosen by a combination of the presence GFP fluorescence and cell morphology consistent with healthy interphase cells. […]
Patches were evaluated with voltage-step protocols to confirm TRAAK expression and minimal non-specific leak based on reversal potential. Currents were recorded using an Axopatch 200B amplifier (Molecular Devices) at a bandwidth of 1 kHz and digitized with an Digidata 1550B (Molecular Devices) at 100–500 kHz using pClamp10.7 software. […] Data were analyzed using Clampfit 10.7, Excel, and Graphpad Prism software. […]

C=C(C)[C@@H]1CCC(C)=C[C@H]1c1c(O)cc(CCCCC)cc1O [CBD, Cannabidiol]
inhibition of TRAAK by extracellular CBD: strongly inhibited
